Source: patent US20080275134A1, “Methods for Treatment of Retinal Degenerative Disease” (University of Washington, priority 2005, published 2008)

What was measured:
[1] = molecular target: T1, isomerase (Bos taurus, UniProt Q28175); experiment: isomerase reaction: 11-cis-retinol production by RPE microsomes from all-trans-retinol; type: biochemical, bovine; conditions: for IC50 / inhibition of isomerization (in words): RPE microsomes; for IC50: all-trans-retinol substrate, read-out: IC50, inhibition of 11-cis-retinol production; for inhibition of isomerization (in words): in vitro; for lowering of potency by saturation of the C13-14 double bond: relative to the 11-cis- and all-trans-isomers of Ret-NH2
T1 construct: Purified RPE microsomes were the source of the enzymes; from tissue; host or cells: bovine retinal pigment epithelium microsomes
T1 sequence (Q28175 2-533 limits assumed): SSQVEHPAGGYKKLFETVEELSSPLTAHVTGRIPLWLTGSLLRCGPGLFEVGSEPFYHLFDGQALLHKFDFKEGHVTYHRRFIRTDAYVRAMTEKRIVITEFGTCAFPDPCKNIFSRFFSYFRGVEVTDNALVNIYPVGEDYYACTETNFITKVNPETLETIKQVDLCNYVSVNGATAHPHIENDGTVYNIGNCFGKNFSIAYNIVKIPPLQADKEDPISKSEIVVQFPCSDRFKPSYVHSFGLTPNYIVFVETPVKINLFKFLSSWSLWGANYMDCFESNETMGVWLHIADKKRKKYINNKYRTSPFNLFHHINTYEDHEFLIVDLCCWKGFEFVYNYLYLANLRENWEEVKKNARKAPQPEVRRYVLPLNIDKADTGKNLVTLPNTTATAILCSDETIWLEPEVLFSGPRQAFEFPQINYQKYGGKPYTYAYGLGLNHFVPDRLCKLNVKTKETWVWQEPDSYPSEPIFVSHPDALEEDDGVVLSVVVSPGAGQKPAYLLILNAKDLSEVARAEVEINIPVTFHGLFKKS
Description: (§1) To test if 11-cis-retinylamine (11-cis Ret-NH2) affects isomerization and esterification, an in vitro assay was employed. In this assay both of the all-trans-retinyl esters formed in the reaction catalyzed by LRAT and 11-cis-retinol production by isomerase were measured (6). Purified RPE microsomes were the source of the enzymes, and all-trans-retinol was the substrate. […] Inhibition of isomerization by Ret-NH2 is not due to binding of CRALBP or competition with 11-cis-retinol for binding to CRALBP. […] An increased concentration of all-trans-retinol lowered the level of inhibition, as illustrated in FIG. 2B. […] Dixon's and Lineweaver-Burk plots in the standard assay conditions yielded Ki=0.1 μM for Ret-NH2 when all-trans-retinol (KM=0.3 μM) was assumed to be a substrate. […] This estimated value reflects the very potent nature of the inhibition by 11-cis-Ret-NH2.
Materials—Fresh bovine eyes were obtained from a local slaughterhouse (Schenk Packing Co., Inc., Stanwood, Wash.). Preparation of bovine RPE microsomes was performed according to previously described methods (Stecher et al., J Biol Chem 274:8577-85, 1999). All chemicals were purchased from Sigma-Aldrich (St. Louis, Mo.). 11-cis-Retinal was obtained from Dr. Rosalie Crouch (Charleston, S.C.).
Reaction conditions for isomerase and LRAT reaction—The isomerase reaction was performed essentially as described previously (Stecher et al., J Biol Chem 274:8577-85, 1999). The reaction was carried out in 10 mM BTP buffer, pH 7.5, 1% BSA, containing 1 mM ATP and 6 μM apo-CRALBP. To investigate inhibition properties of Ret-NH2 and its derivatives, RPE microsomes were preincubated for 5 min in 37° C. with the indicated compound in 10 mM BTP buffer, pH 7.5, 1% BSA, 1 mM ATP prior to addition of apo-CRALBP and all-trans-retinol. Ret-NH2 and its derivatives were delivered to the reaction mixture in 1 μl of DMF, and the same volume of DMF was added to the control reaction. Each experiment was performed three times in duplicate. The average values were used and the standard deviations were calculated.

[2] = molecular target: T2, LRAT (Bos taurus, UniProt Q9BGL2); experiment: LRAT reaction: formation of all-trans-retinyl esters by RPE microsomes; type: biochemical, bovine; conditions: all-trans-retinol substrate
T2 construct: Purified RPE microsomes were the source of the enzymes; from tissue; host or cells: bovine retinal pigment epithelium microsomes
T2 sequence (Q9BGL2 1-230): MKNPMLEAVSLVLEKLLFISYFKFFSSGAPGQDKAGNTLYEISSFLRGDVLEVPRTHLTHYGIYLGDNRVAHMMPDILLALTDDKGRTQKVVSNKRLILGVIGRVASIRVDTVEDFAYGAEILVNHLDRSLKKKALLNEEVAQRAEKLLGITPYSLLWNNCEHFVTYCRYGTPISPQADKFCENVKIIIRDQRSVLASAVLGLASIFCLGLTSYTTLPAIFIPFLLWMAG
Description: as §1
Materials—Fresh bovine eyes were obtained from a local slaughterhouse (Schenk Packing Co., Inc., Stanwood, Wash.). Preparation of bovine RPE microsomes was performed according to previously described methods (Stecher et al., J Biol Chem 274:8577-85, 1999). […]
Reaction conditions for isomerase and LRAT reaction—The isomerase reaction was performed essentially as described previously (Stecher et al., J Biol Chem 274:8577-85, 1999). […] The average values were used and the standard deviations were calculated.

[3] = molecular target: CRALBP (Homo sapiens, UniProt P12271); experiment: analysis of retinoids bound to CRALBP isolated from the reaction mixture; type: binding
Sequence of CRALBP (P12271 whole entry, species assumed): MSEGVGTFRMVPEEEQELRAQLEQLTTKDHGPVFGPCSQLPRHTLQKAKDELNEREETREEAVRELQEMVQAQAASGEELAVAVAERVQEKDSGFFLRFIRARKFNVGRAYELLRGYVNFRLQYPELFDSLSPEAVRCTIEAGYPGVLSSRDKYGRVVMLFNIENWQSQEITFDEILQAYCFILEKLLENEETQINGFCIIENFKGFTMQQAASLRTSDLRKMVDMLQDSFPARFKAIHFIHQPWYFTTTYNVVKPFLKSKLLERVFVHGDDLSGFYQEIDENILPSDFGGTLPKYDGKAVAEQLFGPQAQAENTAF

[4] = test system: regeneration of vision chromophore (11-cis-retinal); experiment: regeneration of 11-cis-retinal in mouse eyes after gavage and light bleach, HPLC retinoid analysis; type: in vivo; conditions: gavage in vegetable oil, 16 hours dark, light stimulated, 5 hours dark
Description: Mice were gavaged with all-trains-Ret-NH2, exposed to intense light for 20 min, and then allowed to recover in the dark for 5 hours. The total amount of different forms of retinoids in all experiments was unchanged. […] For this experiment mice were treated with both 9-cis-retinol and all-trans-Ret-NH2, and bleached after 24 hours, and were allowed to recover for 5 hours in the dark. The presence of 9-cis-retinal was confirmed in treated animals (see peaks 4 and 4′ in FIG. 4A bottom panel, corresponding to syn- and anti-9-cis-retinal oximes, respectively). 11-cis-Retinal was not reduced and/or esterified after treatment with Ret-NH2. […] This supports the idea that Ret-NH2 is a specific inhibitor of the isomerization reaction.
A. Chromatographic separation of nonpolar retinoids from WT mouse eyes. Mice were gavaged with all-trans-Ret-NH2 24 hours prior to bleaching for 20 min at 150 cd·m^−2 W in the Ganzfeld chamber. Regeneration of 11-cis-retinal was allowed for 24 hours in the dark, and retinoids were extracted from the eye and separated by normal phase HPLC as described in Materials and Methods. The peaks were identified based on elution time and absorption spectra correspond to the following retinoids: 1, all-trans-retinyl esters; 2,2′, syn- and anti-11-cis-retinal oximes; 3, syn-all-trans-retinal oxime; 4,4′, syn- and anti-9-cis-retinal oximes; 5, all-trans-retinol. B. Changes of 11-cis-retinal oxime levels at increasing doses of all-trans-Ret-NH2 during 5 hours or 24 hours of dark adaptation. Square indicates the level of 11-cis-retinal oximes that was present in mice gavaged with vegetable oil without retinoids just after bleaching, and arrow indicates the increase of visual chromophore during 5 hours of dark adaptation. Triangles correspond to the level of 11-cis-retinal found in the mice gavaged with 50 mg/kg of 13-cis-RA. C and D. Single flash ERG responses of increasing intensity for all-trans-Ret-NH2 treated mice and control mice. Serial responses to increasing flash stimuli were obtained for all-trans-Ret-NH2 treated and control mice for selected intensities (C) and plotted as a function of a-wave and b-wave versus varying light intensities under dark-adapted conditions (D) before bleach and at 5 hours and 24 hours after bleach. The dark-adapted mice were bleached with intense constant illumination (150 cd·m^−2) for 20 min. […] SE bars are shown.
Chromatographic separation of nonpolar retinoids from WT mouse eyes. Mice were gavaged with 100 mg/kg of all-trans-Ret-NH2 24 hours prior to bleaching. Mice were next exposed to 500 cd m^−2 for 48 min bleaching in the Ganzfeld chamber. Regeneration of 11-cis-retinal was allowed for 24 hours in the dark, and retinoids were extracted from the eye and separated by normal phase HPLC as described in Materials and Methods. The peaks identified based on elution time and absorption spectra correspond to the following retinoids: 1, all-trans-retinyl esters; 2,2′, syn- and anti-1-cis-retinal oximes; 3,3′ syn- and anti-all-trans-retinal oximes; 4, all-trans-retinol.
Mice were gavaged with the solution of inhibitor in vegetable oil (control—non-treated, RPN—retinylpalmitamide, RAN—retinylacetamide, Ret—NH2-all-trans-retinylamine), kept in dark for 16 hours, then light stimulated and kept in dark for additional 5 hours before their eyes were analyzed.
Mouse retinoid extraction and analysis—Retinoid analysis was performed under dim red light as described previously (Maeda et al., J. Neurochem 85:944-956, 2003; Van Hooser et al., J Biol Chem 277:19173-82, 2002). Mice were gavaged with retinoids as described previously (Van Hooser et al., J Biol Chem 277:19173-82, 2002).

[5] = test system: RPE protein(s); experiment: gel filtration chromatography of DHPC-solubilized RPE microsome proteins with retinoid; type: binding, bovine; conditions: for gel filtration elution position (fractions): Superdex 200, native RPE extract, proteins elute in fractions 18-60
Description: The specificity of Ret-NH2 was further tested by biochemical assays. […] When the RPE microsomes were solubilized with DHPC, the isomerase activity decreased only slightly. Then [^3H]-Ret-NH2 was added to the RPE extract and loaded on a gel filtration column. Proteins were fractionated and eluted between fractions 18 and 60 (FIG. 3A), while the radioactivity was eluted in fractions 36-38. RPE65 was identified by immunoblotting in fractions 23-34 (FIG. 3B). The most abundant proteins in this fraction were identified by mass spectrometry and include glucose phosphate isomerase, D-glyceraldehyde-3-phosphate dehydrogenase, phosphoglycerate mutase, triose phosphate isomerase, enolase, annexin V, calbindin 2, and LRAT. Identification of less abundant proteins is in progress.
RPE microsomes were solubilized with 10 mM DHPC, incubated with 11,12-di[^3H]-all-trans-Ret-NH2 (1 μM), and loaded on a Superdex 200 column equilibrated with Tris/HCl buffer, pH 7.5, containing 4 mM DHPC. Proteins were eluted with a constant flow rate of 0.4 ml/min. The protein and radioactivity levels of 0.4 ml fractions were examined by SDS-PAGE and scintillation counting (A), and immunoblot with anti-RPE65 and anti-LRAT antibodies (B). The star indicates the fraction associated with maximum radioactivity.

`CC(C=CC1=C(C)CCCC1(C)C)=CC=CC(C)=CCN` (single isomer, unassigned) [9-cis-Ret-NH2, 9-cis-retinylamine] was tested, and the IC50 [1] was 0.64 µM.

In the case of `CC(C=CC1=C(C)CCCC1(C)C)=CC=CC(C)=CCN` (single isomer, unassigned) [11-cis-Ret-NH2, 11-cis-retinylamine], the “formation of all-trans-retinyl esters (LRAT activity)” value [2] is reported as “not affected”, the IC50 [1] is reported as 0.07 µM and the “inhibition of isomerization (in words)” value [1] is reported as “most potent inhibitor”. The “binding to CRALBP” value [3] was “did not reveal any significant levels”.

`CC(C=CC1=C(C)CCCC1(C)C)=CC=CC(C)=CCN` (single isomer, unassigned) [13-cis-Ret-NH2, 13-cis-retinylamine] was tested, and the IC50 [1] was 0.73 µM.

`CCCCCCCCCCCCCCCC(=O)NC/C=C(C)/C=C/C=C(C)/C=C/C1=C(C)CCCC1(C)C` [N-Retinylpalmitamide] was tested, and the “inhibition of isomerization (in words)” value [1] was “did not inhibit isomerization”, the “inhibition of isomerization (in words)” value ([1]; listed as N-palmitoylretinamide) was “non-inhibitory” and the “inhibition of regeneration of vision chromophore in mice by retinylamides” value (“inhibition of regeneration … by retinylamides” for short) [4] was “potent inhibitors of regeneration in mice”. For the same compound, the “inhibition of regeneration … by retinylamides” value ([4]; listed as RPN) was “same as free retinylamine”.

With `CC1=C(/C=C/C(C)=C/C=C/C(C)=C/CNO)C(C)(C)CCC1` [N-hydroxyretinylamine] the “inhibition of isomerization (in words)” value [1] was “higher IC50”.

In the case of `CC(=O)NC/C=C(C)/C=C/C=C(C)/C=C/C1=C(C)CCCC1(C)C` [N-retinylacetamide], the “gel filtration elution position (fractions)” value [5] is reported as “eluted either in the void volume or with low molecular weight compounds”, the “inhibition of isomerization (in words)” value [1] is reported as “weakly inhibit the isomerization reaction” and the “inhibition of regeneration … by retinylamides” value [4] is reported as “potent inhibitors of regeneration in mice”. For the same compound, the “inhibition of regeneration … by retinylamides” value ([4]; listed as RAN) was “same as free retinylamine”.

In the case of `CC(C=CC1=C(C)CCCC1(C)C)=CC=CC(C)CCN` (centres unmarked) [VIII], the “lowering of potency by saturation of the C13-14 double bond” value [1] is reported as “about 10 fold”.

`CC1=C(/C=C/C(C)=C/C=CC(C)CCN)C(C)(C)CCC1` (centres unmarked) [VII] was tested, and the “lowering of potency by saturation of the C13-14 double bond” value [1] was “about 10 fold”.

`[3H]C(C=C(C)C=CC1=C(C)CCCC1(C)C)=C([3H])C(C)=CCN` [[^3H]-Ret-NH2, 11,12-di[^3H]-all-trans-Ret-NH2] was tested, and the “gel filtration elution position (fractions), heat-denaturated proteins” value ([5]; control with heat-denaturated proteins) was 48-60.

With `CC1=C(/C=C/C(C)=C/C=C/C(C)CCO)C(C)(C)CCC1` (stereo not drawn) [all-trans-13,14-dihydroretinol, reference compound] the “inhibition of isomerization (in words)” value [1] was “neither all-trans-thioretinol nor all-trans-13,14-dihydroretinol influenced the isomerization”.

In the case of `CC1=C(/C=C/C(C)=C/C=C/C(C)=C/CO)C(C)(C)CCC1` [all-trans-retinol, reference compound], the “gel filtration elution position (fractions)” value [5] is reported as “eluted either in the void volume or with low molecular weight compounds”, the Km ([1]; all-trans-retinol assumed to be a substrate) is reported as 0.3 µM and the “inhibition of isomerization (in words)” value [1] is reported as “weakly inhibit the isomerization reaction”.

In the case of `CC1=C(/C=C/C(C)=C/C=C/C(C)=C/CS)C(C)(C)CCC1` [all-trans-thioretinol, reference compound], the “inhibition of isomerization (in words)” value [1] is reported as “neither all-trans-thioretinol nor all-trans-13,14-dihydroretinol influenced the isomerization”.
